In PubChem BioAssay AID449762 (Southern Research Specialized Biocontainment Screening …, 2010):
Inconclusive results are not listed.

Tested on: M. tuberculosis H37Rv growth inhibition, 7H9 media
Assay: M. tuberculosis growth inhibition, HTS (AID 449762);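 note: bacterial growth assessed after seven days of incubation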
Settings: for IC90: measured here: IC90 growth inhibition

Row | SMILES | IC50 [µM] | IC90 [µM]
1 | O=C(CCn1c(=O)c2cccn2c2cccnc21)N1CCN(c2cccc(Cl)c2)CC1 | 30.6 | 41.8
2 | COC(=O)[C@@H](NC(=O)c1cc(COc2cncc(Cl)c2)on1)c1ccccc1 | 1.19 | 3.97
3 | Cc1ccc2nc3c(cc(C(=O)NCc4ccco4)c(=N)n3Cc3ccco3)c(=O)n2c1 | 31.9 | > 100
4 | COc1cccc(C(=O)NC2CC3CCCC(C2)N3CC(=O)Nc2ccc(N(C)C)cc2)c1 (stereo not drawn) | 19.7 | 24.8
5 | CCCCCCCCn1cnc2c(N)c(C)c(C)cc21 | 37.4 | 60
6 | CC[N+](C)(CC)CCCCOc1ccc2c(c1)C(=O)c1cc(OCCCC[N+](C)(CC)CC)ccc1-2 | 0.96 | 1.52
7 | CCCCN(C)CCNC(=O)c1ccc(Cn2c(=S)[nH]c3ccc(Br)cc3c2=O)cc1 | 12.2 | 20
8 | NC(=S)N=Nc1ccc(NN=C(N)N)cc1 | 16.9 | 24.7
9 | O=C(NC1CCCC(C(F)(F)F)C1)c1ccc([N+](=O)[O-])o1 (stereo not drawn) | 2.71 | 12.3
10 | CCOCCN1CCN(c2c(CC)c(C)nc3cc(-c4cc(OC)cc(OC)c4)nn23)CC1 | 25.5 | 38.9
11 | COc1ccc2nc(N=NC3=C(O)CC(C)(C)CC3=O)sc2c1 | 12.4 | 13.7
12 | CCCCS/C(N)=N/N=C/c1cc(C)ccc1O | 12.3 | 13.9
13 | CS/C(Nc1cc(Cl)ccc1Cl)=C(/C#N)C(=O)c1ccco1 | 3.6 | 40.2
14 | Cc1cc(NC(=O)c2sccc2C)n(-c2nc3ccccc3[nH]2)n1 | 2.94 | > 100
15 | Oc1ccccc1-c1nnc(COc2ccccc2)o1 | 7.64 | 34.7
16 | CCCOc1ccc(-c2cnc(SCC(N)=O)nc2N)cc1 | 12.1 | 50.2
17 | COC(=O)Cn1nc(-c2ccccc2)c2cc(Cl)ccc21 | 8.72 | 51.7
18 | C/C(=N\Nc1ccc([N+](=O)[O-])cc1)c1cccc(N)c1 | 62.9 | 88.3
19 | O=C(CSc1nnnn1-c1ccc2c(c1)OCCO2)OC1CCCCC1 | 11.9 | 21.7
20 | CCOC(=O)N1CCN=C1SCc1ccc(C(F)(F)F)cc1 | – | > 100
21 | Cc1ccc(CN2CC(C(=O)OCc3ccccc3Cl)CC2=O)cc1 (stereo not drawn) | 4.66 | 28.7
22 | CCN1CCN(CCCNC(=O)c2ccc(/C=C3/Oc4ccccc4N(Cc4cccc(C)c4)C3=O)cc2)CC1 | 29.6 | 42.2
23 | C#CCCc1cscc1/C=[N+](\[O-])c1ccc(C(=O)OCC)cc1 | 99.1 | > 100

Row | SMILES | IC50 [µM] | IC90 [µM]
24 | CC1CC2=C(CC1/C=N/NC(N)=S)C(C)(C)CCC2 (stereo not drawn) | 14.4 | 24.6
25 | O=C([O-])c1ccccc1-[n+]1c(-c2ccccc2)cc(-c2ccccc2)cc1-c1ccccc1 | 15.3 | 20.5
26 | Cc1cc(Nc2cc(Cl)nc(Sc3ccc(NC(=O)C4CC4)cc3)n2)n[nH]1 | 26.2 | 45.1
27 | Clc1ccc2c(c1)C(c1ccccc1Cl)=NCc1nnc(N3CCN(CCOc4ccccc4)CC3)n1-2 | 43 | 48
28 | C=CCOc1ccc2c(c1)C(=NO)c1cc(OCC=C)ccc1-2 | 5.82 | 9.27
29 | CC(/C=C/C=C/c1ccccc1)=N\NC(=O)c1cccnc1 | 91.8 | > 100
30 | COc1ccc(NCc2nc3ccccc3n2CCOc2ccccc2)cc1 | 44.8 | 50.6
31 | Cc1ccc(-c2ccc(/C=N/c3ncn[nH]3)o2)cc1Cl | 98.8 | > 100
32 | CCCN(CCC)CCNC(=O)c1cc2c(-c3ccc(Cl)cc3)nn(C)c2s1 | 19.5 | 27.7
33 | c1ccc2c(c1)CCN(c1nc(CN3CCOCC3)nc3sc4c(c13)CCCC4)C2 | 13.8 | 33.6
34 | CCN(CC)C(=S)SSC(=S)N(CC)CC | 0.78 | 1.53
35 | Nc1ccc(S(=O)(=O)Nc2cnc3ccccc3n2)cc1 | 26.4 | 52
36 | CSCCOC(=O)COc1ccc(/C=N/NC(=O)c2c(Cl)cnn2C)cc1 | 9.04 | 22.6
37 | O=[N+]([O-])c1cc([N+](=O)[O-])c2cc3ccccc3nc2c1 | < 0.2 | 0.81
38 | Cc1ccccc1NC1=C/C(=N\S(=O)(=O)c2cccs2)c2ccccc2C1=O | 7.97 | 11.8
39 | Cc1cc2cc(CNC(=O)NC3CCCCC3)ccc2[nH]1 | 23.3 | 50.9
40 | O=C(CCCCCNc1nc(=S)[nH]c2ccccc12)N1CCN(c2ccccn2)CC1 | 40.9 | > 100
41 | COc1cc(CNCCc2ccccc2)cc(Cl)c1OCc1ccccc1 | 22.3 | 24.9
42 | NC(=O)c1cccn1-c1ncc(C(F)(F)F)cc1Cl | 6.8 | 16.6
43 | O=C(C[n+]1cc(-c2ccc(Cl)cc2)n2c1CCC2)Nc1nc(-c2ccccc2)cs1 | 17 | 25.1
44 | Cc1cc(NC2CCCCC2)nc(-c2ccccc2O)n1 | 39.2 | 51.3
45 | COC(=O)c1c(NC(=S)NN2CCN(C)CC2)sc2c1CCC(C)C2 (stereo not drawn) | 23 | 25.9
46 | CN1CCN(c2c(F)cc3c(=O)c(C(=O)O)cn4c3c2OCN4C)CC1 | 0.72 | 0.8

Row | SMILES | IC50 [µM] | IC90 [µM]
47 | CCOC(=O)C(C)Sc1nc(-c2cccs2)ccc1C#N (stereo not drawn) | 37.6 | 50.8
48 | COc1ccc(N2CN=C3SCC(=O)N3C2)cc1 | – | > 100
49 | CCOc1ccc(C(=O)CCN2CCCCCC2)cc1 | 11.9 | 17.4
50 | C#CCOC(=O)/C(=C/C=C/c1ccccc1)NC(=O)c1ccccc1 | 3.82 | 43.3
51 | CC(C)OC(=O)CSc1nc2ccccc2s1 | 12.4 | 33.6
52 | CCc1ccc(Nc2n[n+](C)c(-c3ccncc3)s2)cc1 | 45.3 | 51.3
53 | O=C(N[C@H]1CCC(=O)N(CCSc2ccc(Br)cc2)CC1)OCc1ccccc1 | 23.3 | 28.6
54 | CCOC(=O)c1ccc(-c2c(-c3ccc4c(c3)OCO4)noc2C)cc1F | 33.3 | 54
55 | Cc1[nH][nH]c(=O)c1C(c1ccc(-c2ccc(Cl)c(Cl)c2)o1)c1c(C)[nH][nH]c1=O | 53.4 | 85.6
56 | CN1C2CCC1/C(=C/c1ccccn1)C(=O)/C2=C\c1ccccn1 | 16.4 | 25.8
57 | Cc1ccc(/C=C2\SC(N3CCCC3)=NC2=O)cc1 | 0.38 | 1.68
58 | CCOC(=O)CNC(=O)CNC(=O)c1nn(-c2ccc(OC)c(Cl)c2)c(=O)c2ccccc12 | 22.2 | > 100
59 | O=C(OCc1ccccc1F)c1cnc(Cl)c(Cl)c1 | 13.1 | 49.8
60 | Oc1ccc(/C=N/NC(=S)N2CCOCC2)cc1 | 4.2 | 6.19
61 | Cc1oc2c(c1C(=O)NCc1cccnc1)C(=O)c1ccccc1C2=O | 9.78 | 13.9
62 | CC(C)(C)c1ccc(C(=O)NC(=S)NNC(=O)COc2ccccc2)cc1 | 3.39 | 8.56
63 | COc1nc(-c2ccccc2)cc(-c2ccc(OC)c(OC)c2)n1 | 45.3 | > 100
64 | Cc1ccc(NC(=O)CNCc2cccs2)cc1Br | 99.6 | > 100
65 | O=C(c1ccc(Cl)cc1)N1N=C(c2ccccn2)CC1(O)C(F)(F)F (stereo not drawn) | 2.21 | > 100
66 | CN(C)C(=O)C1C2NC(=S)N(c3ccc(Cl)cc3)C1(C)Oc1ccc(Cl)cc12 (stereo not drawn) | 23.6 | 26.9
67 | Cc1nc(-c2nc(-c3c(C(=O)NNC(=O)c4ccc(Cl)cc4)noc3C)cs2)cs1 | 7.57 | 18.2
68 | CC(=O)c1cccc2c(O)c(C3=Nc4ccccc4C3=O)[nH]c12 | 11.7 | 13.2
69 | O=[N+]([O-])c1cc(-c2ccc(/C=N\n3cnnc3)o2)cc([N+](=O)[O-])c1 | 0.65 | 1.86

Row | SMILES | IC50 [µM] | IC90 [µM]
70 | CCn1cc(Br)c(C(=O)Nc2ccc(C(=O)OC(C)C)cc2)n1 | 35.5 | 57.8
71 | CSc1ccc(C(=O)C2CCCN(C(=O)c3ccc4c(c3)no[n+]4[O-])C2)cc1 (stereo not drawn) | 0.54 | 1.57
72 | CCN(CC)S(=O)(=O)c1ccc2oc(SCC(=O)Nc3cc(C)on3)nc2c1 | 1.39 | 5.88
73 | O=[N+]([O-])c1cc(-c2ncccn2)c([N+](=O)[O-])s1 | 12.9 | 32.5
74 | CCc1ccc(/C(C)=N/Nc2cc(Cl)nc(C)n2)cc1 | 41.9 | 99
75 | O=C(NCC1CCN(c2ccc(S(=O)(=O)N3CCOCC3)cc2)CC1)c1ccc(Cl)cc1 | 31.9 | 51.8
76 | O=C1Nc2ccc(Br)cc2/C1=C/C(=O)c1ccc2c(c1)OCO2 | 7.71 | 18.1
77 | Cc1cc(Cl)ccc1OCCCC(=O)NO | 17.6 | > 100
78 | CCc1cc(/C(Cc2ccccn2)=N\Nc2ccccc2)c(O)cc1O | 60.5 | 77.4
79 | COc1cc(C)c(/C=C/C(C)=C/C=C/C(C)=C/C(=O)O)c(C)c1C | 1.56 | 6.76
80 | O=C(CCN1C(=O)/C(=C/c2ccccc2Cl)SC1=S)N1CCCC1 | 9.76 | > 25
81 | Fc1nc(F)c(F)c(NCCCNc2c(F)c(F)nc(F)c2F)c1F | 37.7 | > 100
82 | c1ccc(-c2n[nH]c(-c3ccccn3)n2)cc1 | 12.6 | 19.3
83 | CCCOc1ccc2c(c1)C(=NN=C(N)N)c1cc(OCCC)ccc1-2 | 12.4 | 13.1
84 | O=C(CCl)N1CCCC1c1ccc2c(c1)OCCO2 (stereo not drawn) | 3.45 | 9.07
85 | CC(O)CNc1nc2ccccc2n1-c1ncnc2sc3c(c12)CCC3 (stereo not drawn) | 27.6 | 36.6
86 | Cc1ccc(C(=O)Nc2ccc3c4c(cccc24)CC3)cc1[N+](=O)[O-] | < 0.2 | > 100
87 | COC(=O)c1ccc(-n2cnc3ccccc32)nc1 | 13.9 | 45.1
88 | C/C(=N/Nc1ccnc2cc(Cl)ccc12)c1ccc(O)cc1 | 23.7 | 27.2
89 | CCOC(=O)C1CCN(c2nc3cc(OC)ccc3cc2C#N)CC1 | 52.7 | > 100
90 | N#Cc1c(-c2ccccc2)c(-c2ccccc2)nn(CC(=O)NNC(=O)Nc2ccc(Cl)c(Cl)c2)c1=O | 49.2 | 55.5
